# Patent US8741886B2, “Baclofen and acamprosate based therapy of neurological disorders” (Pharnext, priority 2011, dated 2014)
# Columns and labels:
# [1] = system: Human brain microvascular endothelial cerebral cells (HBMEC); assay: Toxicity of human Aβ1-42 peptide on HBMEC: total length of capillary network; assay type: cell-based; conditions: Aβ1-42 2.5 μM; single drugs at the concentrations used in the combination
# Experimental: Human brain microvascular endothelial cell cultures were used to study the protection afforded by candidate compound(s) on Aβ1-42 toxicity.
# Human brain microvascular endothelial cerebral cells (HBMEC, ScienCell Ref: 1000, frozen at passage 10) were rapidly thawed in a waterbath at +37° C. The supernatant was immediately put in 9 ml Dulbecco's modified Eagle's medium (DMEM; Pan Biotech ref: P04-03600) containing 10% of foetal calf serum (FCS; GIBCO ref 10270-106). […]
# • Negative Control: medium alone+0.1% DMSO • Intoxication: amyloid-β1-42 (2.5 μM) for 18 h • Positive control: VEGF-165 (10 nM) (1 reference compound/culture) 1 hr before the Aβ1-42 (2.5 μM) addition for a 18 h incubation time. • Test compounds: Test compound(s) 1 hr before the Aβ1-42 (2.5 μM) addition for a 18 h incubation time. Capillary Network Quantification
# Per well, 2 pictures with 4× lens were taken using InCell Analyzer™ 1000 (GE Healthcare) in light transmission. […] The total length of capillary network was assessed.
# Data were expressed in percentage of control conditions (no intoxication, no amyloid=100%) in order to express the amyloid injury. All values were expressed as mean+/−SEM (s.e.mean) of the 3 cultures (n=6 wells per condition). […]
# rat cortical neurons = assay: Toxicity of Aβ1-42 in neurite growth model: total length of neurite network; assay type: cell-based; conditions: Aβ1-42 2.5 μM; single drugs at the concentrations used in the combination
# Experimental: Rat cortical neurons were cultured as described by Singer et al. (35). Briefly pregnant female rats of 15 days gestation were killed by cervical dislocation (Rats Wistar) and the foetuses were removed from the uterus. The cortex was removed and placed in ice-cold medium of Leibovitz (L15) containing 2% of Penicillin 10.000 U/ml and Streptomycin 10 mg/ml and 1% of bovine serum albumin (BSA). Cortices were dissociated by trypsin for 20 min at 37° C. (0.05%). The reaction was stopped by the addition of Dulbecco's modified Eagle's medium (DMEM) containing DNasel grade II and 10% of foetal calf serum (FCS). Cells were then mechanically dissociated by 3 serial passages through a 10 ml pipette and centrifuged at 515×g for 10 min at +4° C. […] Viable cells were counted in a Neubauer cytometer using the trypan blue exclusion test. […]
# After 24 hours of intoxication, the supernatant is taken off and the cortical neurons are fixed by a cold solution of ethanol (95%) and acetic acid (5%) for 5 min. […] Then, cells are incubated with monoclonal antibody anti microtubule-associated-protein 2 (MAP-2; Sigma) or with anti synaptophysin (SYN, S5798, Sigma) together with anti PSD95 (P246, Sigma) antibodies in order to quantify synapses. […]
Structure (SMILES),"effect on Aβ1-42 intoxication, total length of capillary network (in words) [1]","effect on Aβ1-42 intoxication, total length of neurites network (in words) (rat cortical neurons)"
CC(=O)NCCCS(=O)(=O)O [Acamprosate],no significant effect,no significant effect
NCC(CC(=O)O)c1ccc(Cl)cc1 (stereo not shown) [Baclofen],no significant effect,no significant effect
